Laboratory results: publication PMC8534029 (Cells, 2021)

Molecular target: T1, human DOR (T7-tagged, HEK293 cells) (Homo sapiens, UniProt P41143)
T1 construct: gene OPRD1
Assay: CellKey impedance assay, agonist
Assay type: cell-based
Conditions: morphine up to 10^−5 M, no OT, partial agonist, EC50 n.d.

T1 sequence (P41143 whole entry, looked up): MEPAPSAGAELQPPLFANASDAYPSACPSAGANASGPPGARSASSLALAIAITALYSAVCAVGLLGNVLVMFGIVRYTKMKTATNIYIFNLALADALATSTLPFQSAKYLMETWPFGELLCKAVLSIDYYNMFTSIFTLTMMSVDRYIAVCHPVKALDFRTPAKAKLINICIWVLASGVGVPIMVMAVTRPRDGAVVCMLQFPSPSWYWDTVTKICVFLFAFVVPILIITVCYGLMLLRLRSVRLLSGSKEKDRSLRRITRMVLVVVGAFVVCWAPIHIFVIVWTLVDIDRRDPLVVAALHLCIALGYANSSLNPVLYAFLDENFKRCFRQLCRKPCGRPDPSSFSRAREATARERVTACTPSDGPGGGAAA

For `CN1CC[C@]23c4c5ccc(O)c4O[C@H]2[C@@H](O)C=C[C@H]3[C@H]1C5` [morphine], the “maximum response (% of SNC80 Emax)” value was 50.6 ± 7.01%.
